Test results taken from paper PMC6362118, “Pharmacophore-guided discovery of CDC25 inhibitors causing cell cycle arrest and tumor regression” (Scientific Reports, 2019).
One block for each compound: values may come before it.

Tests used:
[1] = tested on: PTPN2 (TCPTP); experiment: Compound profiling, phosphatase panel (Eurofins); assay type: biochemical; conditions: relative to DMSO
Source text: (§1) 125 Compound profiling - Selected compounds were profiled against a panel of protein
(§2) 126 phosphatases at Eurofins Pharma Discovery Services Ltd., Dundee, UK.

[2] = tested on: MKP5 (DUSP10); experiment: Compound profiling, phosphatase panel (Eurofins); assay type: biochemical; conditions: relative to DMSO
Source text: as §1, §2

[3] = tested on: PP2A; experiment: Compound profiling, phosphatase panel (Eurofins); assay type: biochemical; conditions: relative to DMSO
Source text: as §1, §2

[4] = tested on: PTPN9 (MEG2); experiment: Compound profiling, phosphatase panel (Eurofins); assay type: biochemical; conditions: relative to DMSO
Source text: as §1, §2

[5] = tested on: PTPN4 (MEG1); experiment: Compound profiling, phosphatase panel (Eurofins); assay type: biochemical; conditions: relative to DMSO
Source text: as §1, §2

[6] = tested on: PP1a; experiment: Compound profiling, phosphatase panel (Eurofins); assay type: biochemical; conditions: relative to DMSO
Source text: as §1, §2

[7] = tested on: PTPN22; experiment: Compound profiling, phosphatase panel (Eurofins); assay type: biochemical; conditions: relative to DMSO
Source text: as §1, §2

[8] = tested on: VHR (DUSP3); experiment: Compound profiling, phosphatase panel (Eurofins); assay type: biochemical; conditions: relative to DMSO
Source text: as §1, §2

[9] = tested on: TMDP (DUSP13); experiment: Compound profiling, phosphatase panel (Eurofins); assay type: biochemical; conditions: relative to DMSO
Source text: as §1, §2

[10] = tested on: DUSP22; experiment: Compound profiling, phosphatase panel (Eurofins); assay type: biochemical; conditions: relative to DMSO
Source text: as §1, §2

[11] = tested on: PTPN7 (HePTP); experiment: Compound profiling, phosphatase panel (Eurofins); assay type: biochemical; conditions: relative to DMSO
Source text: as §1, §2

[12] = tested on: PTPRC (CD45); experiment: Compound profiling, phosphatase panel (Eurofins); assay type: biochemical; conditions: relative to DMSO
Source text: as §1, §2

[13] = tested on: PTPN1 (PTP1B); experiment: Compound profiling, phosphatase panel (Eurofins); assay type: biochemical; conditions: relative to DMSO
Source text: as §1, §2

[14] = tested on: PTPN11 (SHP-2); experiment: Compound profiling, phosphatase panel (Eurofins); assay type: biochemical; conditions: relative to DMSO
Source text: as §1, §2

[15] = tested on: PTPN6 (SHP-1); experiment: Compound profiling, phosphatase panel (Eurofins); assay type: biochemical; conditions: relative to DMSO
Source text: as §1, §2

[16] = tested on: HeLa cells; experiment: Cell viability assay on HeLa cells; assay type: cell-based; conditions: Homo sapiens, 48h treatment
Method: 75 Cell culture - Wild-type HeLa and Kyoto HeLa cells stably expressing mCherry-H2B
76 were maintained in DMEM+L-Glutamine (Gibco, Life Technologies, USA)
77 supplemented with 5% fetal calf serum (FCS) (Gibco) and penicillin-streptomycin (100
78 U/ml - 100 µg/ml) (Gibco). […]
87 Cell viability assays - Compounds viability upon 48h treatment with the compounds was
88 assessed as described 4. Data were plotted with Prism 7® and analyzed by non-linear
89 regression. Comparison of single curve fitting to all data set within an experiment was
90 performed with the extra sum-of-squares F-test to determine P values. […]

[17] = tested on: HCT116 tumors; experiment: HCT116 tumor xenograft in zebrafish embryos; assay type: in vivo; conditions: for primary tumor size at day 3 relative to day 0: 10 µM in water, three days (day 2 to day 5); for metastasis (tumor cells in caudal hematopoietic plexus): 10 µM, 3 dpi
Method: Implantation of HCT116 cells into zebrafish embryos were carried out essentially as previously described. Briefly, HCT116 cells were cultured in McCoy’s medium supplemented with 10% FCS and penicillin/streptomycin until ~80% confluence, then labeled for 30 min at 37 °C in 6 μg/mL 1,1′-dioctadecyl-3,3,3′,3′-tetramethylindocarbocyanine perchlorate (DiI, Sigma) in PBS followed by washing 3x in PBS. Labeled cells were implanted in the perivitelline space of 48 hours post-fertilization (hpf) wildtype (AB) zebrafish embryos, kept from the 1-cell stage in 1-phenyl-2-thiourea (PTU)-containing E3-water. […] As control, embryos were incubated in PTU-E3 with 0.1% DMSO (vehicle). Tumor-bearing embryos were incubated at 36 °C for three days and the change in tumor volume was evaluated as the size of the tumors at three days post-implantation (3 dpi) relative to the size immediately after implantation (0 dpi). Metastasis was evaluated at 3 dpi as the number of tumor cells present in the caudal hematopoietic plexus, the main metastatic site for tumors implanted in the perivitelline space.

SMILES: O=C1C=C(c2ccc(O)cc2O)C(=O)c2c(O)cccc21 [UPD-140, 2-(2′,4′-dihydroxyphenyl)-8-hydroxy-1,4-naphthoquinone]
remaining activity (%) ([1]; UPD-140 1.5 µM): 87 ± 8% | remaining activity (%) ([2]; UPD-140 1.5 µM): 109% | remaining activity (%) ([3]; UPD-140 1.5 µM): 95 ± 2% | remaining activity (%) ([4]; UPD-140 1.5 µM): 89% | remaining activity (%) ([5]; UPD-140 1.5 µM): 87 ± 1% | remaining activity (%) ([6]; UPD-140 1.5 µM): 89 ± 2% | remaining activity (%) ([7]; UPD-140 1.5 µM): 99 ± 5% | remaining activity (%) ([8]; UPD-140 1.5 µM): 106 ± 4% | remaining activity (%) ([9]; UPD-140 1.5 µM): 105 ± 4% | remaining activity (%) ([10]; UPD-140 1.5 µM): 90 ± 4% | remaining activity (%) ([11]; UPD-140 1.5 µM): 95% | remaining activity (%) ([12]; UPD-140 1.5 µM): 103 ± 2% | remaining activity (%) ([13]; UPD-140 1.5 µM): 95 ± 5% | remaining activity (%) ([14]; UPD-140 1.5 µM): 96 ± 2% | remaining activity (%) ([15]; UPD-140 1.5 µM): 78 ± 2% | IC50 [16]: 1200 nM | primary tumor size at day 3 relative to day 0 [17]: reduced to approximately half the size of the initial volume | metastasis (tumor cells in caudal hematopoietic plexus) [17]: reduction in metastasis achieved borderline significance

SMILES: O=C1C(c2ccc(O)cc2O)=CC(=O)c2c(O)cccc21 [UPD-176, 5-hydroxy-2-(2,4-dihydroxyphenyl)naphthalene-1,4-dione]
IC50 [16]: 1080 nM | primary tumor size at day 3 relative to day 0 [17]: tendency towards tumor regression, although not significant | metastasis (tumor cells in caudal hematopoietic plexus) [17]: did not appear to be significant

remaining activity (%) ([1]; UPD-795 1 µM): 99 ± 2% | remaining activity (%) ([2]; UPD-795 1 µM): 107 ± 1% | remaining activity (%) ([3]; UPD-795 1 µM): 94 ± 1% | remaining activity (%) ([4]; UPD-795 1 µM): 85 ± 5% | remaining activity (%) ([5]; UPD-795 1 µM): 94 ± 1% | remaining activity (%) ([6]; UPD-795 1 µM): 88 ± 1% | remaining activity (%) ([7]; UPD-795 1 µM): 98 ± 1% | remaining activity (%) ([8]; UPD-795 1 µM): 108 ± 4% | remaining activity (%) ([9]; UPD-795 1 µM): 100% | remaining activity (%) ([10]; UPD-795 1 µM): 92 ± 3% | remaining activity (%) ([11]; UPD-795 1 µM): 87 ± 2% | remaining activity (%) ([12]; UPD-795 1 µM): 97 ± 2% | remaining activity (%) ([13]; UPD-795 1 µM): 94 ± 7% | remaining activity (%) ([14]; UPD-795 1 µM): 91 ± 14% | remaining activity (%) ([15]; UPD-795 1 µM): 80 ± 3%
SMILES: COc1cccc(SC2=CC(=O)c3cccc(O)c3C2=O)c1 [UPD-795, 2-(3-methoxyphenylthio)-8-hydroxynaphthalene-1,4-dione]
